In the assay the target is Glycogen synthase kinase-3 beta (Homo sapiens, UniProt P49841). Nature of the assay: Kinase Assay. The protocol: Kinase activities were assayed according to the methodology developed by the Cell Cycle Group of the Station Biologique (CNRS).

The structures appear in SMILES notation.

Glycogen synthase kinase-3 beta, sequence (P49841 whole entry): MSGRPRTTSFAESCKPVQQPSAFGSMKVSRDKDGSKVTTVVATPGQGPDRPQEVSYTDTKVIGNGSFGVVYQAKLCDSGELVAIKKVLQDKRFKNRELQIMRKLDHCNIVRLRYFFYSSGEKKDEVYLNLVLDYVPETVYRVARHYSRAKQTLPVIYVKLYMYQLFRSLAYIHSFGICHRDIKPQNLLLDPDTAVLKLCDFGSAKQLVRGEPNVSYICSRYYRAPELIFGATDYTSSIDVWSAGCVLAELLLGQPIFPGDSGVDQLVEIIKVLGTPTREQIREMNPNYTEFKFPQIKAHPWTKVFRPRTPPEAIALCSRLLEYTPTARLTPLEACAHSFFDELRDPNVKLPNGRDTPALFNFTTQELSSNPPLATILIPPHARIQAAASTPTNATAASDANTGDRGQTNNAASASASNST

Consider `CCOc1ccc(-c2csc3c2-n2cccc2C3=O)cc1` [Thienopyrrolizine derivative, 4c], for which the concentration for half-maximal inhibition (IC50) – broadly, the concentration that inhibits the measured activity by half – was above 50 µM. With `CCC(=O)Oc1ccc(-c2csc3c2-n2cccc2C3=O)cc1OC(=O)CC` [Thienopyrrolizine derivative, 4i] the figure was above 50 µM; with `COc1cccc(-c2csc3c2-n2cccc2C3=O)c1` [Thienopyrrolizine derivative, 4b], above 50 µM.

`COc1ccc(-c2csc3c2-n2cccc2C3=O)cc1OC(=O)CCCC(=O)O` [Thienopyrrolizine derivative, 4n]: the IC50 was determined as 11 µM.

With `COc1ccc(-c2csc3c2-n2cccc2C3O)cc1O` (centres undefined) [Thienopyrrolizine derivative, 13g], half-maximal inhibition (IC50) was put at 19 µM. With `COc1ccc(-c2csc3c2-n2cccc2C3=O)cc1O` [MR-22388] the figure was 1.5 µM; with `COc1ccc(-c2csc3c2-n2cccc2C3=O)cc1OC(=O)C(C)(C)C` [Thienopyrrolizine derivative, 4m], above 50 µM; with `CCOC(=O)Oc1cc(-c2csc3c2-n2cccc2C3=O)ccc1OC` [Thienopyrrolizine derivative, 4l], above 50 µM. With `Cc1ccc(-c2csc3c2-n2cccc2C3=O)cc1` [Thienopyrrolizine derivative, 4a] the figure was above 50 µM; with `COc1ccc(-c2csc3c2-n2cccc2C3=O)cc1OCc1ccccc1`, above 50 µM; with `COc1ccc(-c2csc3c2-n2cccc2C3O)cc1OCc1ccccc1` (centres undefined) [Thienopyrrolizine derivative, 13e], above 50 µM.

`O=C1c2cscc2-n2cccc21` [Thienopyrrolizine derivative, 5]: the IC50 was above 50 µM.

Turning to `CC(=O)Oc1ccc(-c2csc3c2-n2cccc2C3=O)cc1OC(C)=O` [Thienopyrrolizine derivative, 4h], the IC50 is above 50 µM. For `COc1ccc(-c2csc3c2-n2cccc2C3=O)cc1OC(C)=O` [Thienopyrrolizine derivative, 4k], the concentration for half-maximal inhibition (IC50) is above 50 µM.

The record behind these values is BindingDB's records for doi:10.1080/14756360400004565 (Universit&Eacute, 2004).
